The test system of the data set is Hepatotoxicity.
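Further: binary label assigned from drug-induced liver injury observed in pharmaceutical company records, forming the validation set for the DILIps prediction system.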

Description: Drug Induced Liver Injury Prediction System (DILIps) validation dataset; compound DILI positive/negative as observed in Pfizer data

For the compound `C=C1[C@@H]2CCC3[C@@](CC[C@@H]4[C@H](C(=O)O)C[C@@H](O[C@@H]5O[C@H](CO)[C@@H](OS(=O)(=O)[O-])[C@H](OS(=O)(=O)[O-])[C@H]5OC(=O)CC(C)C)C[C@@]34C)(C2)[C@@H]1O.[K+].[K+]` (stereo not given in full) [ATRACTYLOSIDE], the DILI positive/negative is recorded as 1.

With `Nc1ncn([C@@H]2O[C@H](CO)[C@@H](O)[C@H]2O)c(=O)n1` [AZACITIDINE], where the note is “Liver”, the DILI positive/negative came to 1.

In turn, `Cl.Cl.O=C(CCN1CCN2CCCC2C1)N1c2ccccc2Sc2ccc(Cl)cc21` (stereo not given) [AZACLORZINE HYDROCHLORIDE] had a DILI positive/negative of 1.

Turning to `CN1CCC(=C2c3ccccc3CCc3cccnc32)CC1.O=C(O)/C=C\C(=O)O.O=C(O)/C=C\C(=O)O` [AZATADINE MALEATE], the DILI positive/negative was determined as 1.

`CC1(C)S[C@@H]2[C@H](NC(=O)[C@H](NC(=O)N3CCNC3=O)c3ccccc3)C(=O)N2[C@H]1C(=O)[O-].[Na+]` [AZLOCILLIN SODIUM] came in with a DILI positive/negative of 0.

The compound `CC(C)COCC(CN(Cc1ccccc1)c1ccccc1)N1CCCC1.Cl.O` (stereo not given) [BEPRIDIL HYDROCHLORIDE] came in with a DILI positive/negative of 1.

Regarding `Oc1c(Cl)cc(Cl)cc1Sc1cc(Cl)cc(Cl)c1O` [BITHIONOL], the DILI positive/negative is recorded as 1.

`Brc1ccccc1` [BROMOBENZENE]: the DILI positive/negative was 1.

The compound `CN(C)CCC(c1ccc(Br)cc1)c1ccccn1.O=C(O)/C=C\C(=O)O` (stereo not given) [BROMPHENIRAMINE MALEATE] had a DILI positive/negative of 0.

In turn, `C=C1CC[C@H](O)C/C1=C/C=C1\CCC[C@]2(C)[C@@H]([C@H](C)CCCC(C)(C)O)CC[C@@H]12.O` [CALCIFEDIOL] came in with a DILI positive/negative of 1.

On to `COc1cc(CNC(=O)CCCC/C=C/C(C)C)ccc1O` [CAPSAICIN], for which the DILI positive/negative is listed as 0.

`CC1(C)[C@@H](OC(=O)CCC(=O)[O-])CC[C@]2(C)[C@H]3C(=O)C=C4[C@@H]5C[C@@](C)(C(=O)[O-])CC[C@]5(C)CC[C@@]4(C)[C@]3(C)CC[C@@H]12.[Na+].[Na+]` [CARBENOXOLONE SODIUM] displayed a DILI positive/negative of 0.

`Cn1nnnc1SCC1=C(C(=O)[O-])N2C(=O)[C@@H](NC(=O)[C@H](O)c3ccccc3)[C@H]2SC1.[Na+]` [CEFAMANDOLE SODIUM] displayed a DILI positive/negative of 1.

Compound `CCN1CCN(C(=O)N[C@@H](C(=O)N[C@@H]2C(=O)N3C(C(=O)O)=C(CSc4nnnn4C)CS[C@H]23)c2ccc(O)cc2)C(=O)C1=O.O.O` [CEFOPERAZONE DIHYDRATE] yielded a DILI positive/negative of 0.

Take `CN(C)CCn1nnnc1SCC1=C(C(=O)O)N2C(=O)[C@@H](NC(=O)Cc3csc(N)n3)[C@H]2SC1.Cl.Cl` [CEFOTIAM HYDROCHLORIDE]: the DILI positive/negative was 1.

On to `CC(=O)OCC1=C(C(=O)[O-])N2C(=O)[C@@H](NC(=O)Cc3cccs3)[C@H]2SC1.[Na+]` [CEPHALOTHIN SODIUM], for which the DILI positive/negative was 1.

Regarding `CC(=O)OCC1=C(C(=O)[O-])N2C(=O)[C@@H](NC(=O)CSc3ccncc3)[C@H]2SC1.[Na+]` [CEPHAPIRIN SODIUM], the DILI positive/negative is listed as 0.

`C[C@H](CCC(=O)O)[C@H]1CC[C@H]2[C@@H]3[C@H](O)C[C@@H]4C[C@H](O)CC[C@]4(C)[C@H]3CC[C@]12C` [CHENODIOL] gave a DILI positive/negative of 1.

As to `CN(C)[C@@H]1C(O)=C(C(N)=O)C(=O)[C@@]2(O)C(O)=C3C(=O)c4c(O)ccc(Cl)c4[C@@](C)(O)[C@H]3C[C@@H]12.Cl` [CHLORTETRACYCLINE HYDROCHLORIDE], the DILI positive/negative amounted to 1.

As to `CC1(COc2ccc(CC3SC(=O)NC3=O)cc2)CCCCC1` (stereo not given) [CIGLITAZONE], the DILI positive/negative was determined as 1.

`Cc1onc(-c2ccccc2Cl)c1C(=O)N[C@@H]1C(=O)N2[C@@H]1SC(C)(C)[C@@H]2C(=O)[O-].O.[Na+]` [CLOXACILLIN SODIUM] registered a DILI positive/negative of 1.

For the compound `CN1CCN(C(c2ccccc2)c2ccccc2)CC1` [CYCLIZINE], the DILI positive/negative came out at 1.

In turn, `CN(CCCCCCCCCCN(C)C(=O)Oc1cccc([N+](C)(C)C)c1)C(=O)Oc1cccc([N+](C)(C)C)c1.[Br-].[Br-]` [DEMECARIUM BROMIDE] gave a DILI positive/negative of 1.

Regarding `Br.COc1ccc2c(c1)[C@]13CCCC[C@@H]1[C@H](C2)N(C)CC3.O` [DEXTROMETHORPHAN HYDROBROMIDE], the DILI positive/negative was 0.

As for `C[C@H](CCc1ccccc1)NC[C@H](O)c1ccc(O)c(C(N)=O)c1` [DILEVALOL], the DILI positive/negative is recorded as 1.

Compound `CCOC(=O)C1(c2ccccc2)CCN(CCC(C#N)(c2ccccc2)c2ccccc2)CC1.Cl` [DIPHENOXYLATE HYDROCHLORIDE] returned a DILI positive/negative of 0.

In the case of `CC[N+](C)(C)c1cccc(O)c1.[Cl-]` [EDROPHONIUM CHLORIDE], the DILI positive/negative was 0.

Compound `C[C@@H](CO)NC(=O)[C@@H]1C=C2c3cccc4[nH]cc(c34)C[C@H]2N(C)C1.O=C(O)/C=C\C(=O)O` [ERGONOVINE MALEATE] had a DILI positive/negative of 0.

For the compound `C[C@]12CC[C@@H]3c4ccc(O)cc4CC[C@H]3[C@@H]1CCC2=O` [ESTRONE], the DILI positive/negative was 1.

For the compound `C#C[C@]1(O)CC[C@H]2[C@@H]3CCc4cc(O)ccc4[C@H]3CC[C@@]21C` [ETHINYL ESTRADIOL], the DILI positive/negative was 1.

With `CCSCC[C@H](N)C(=O)O` [ETHIONINE], the DILI positive/negative amounted to 1.

As for `C#C[C@]1(OC(C)=O)CC[C@H]2[C@@H]3CCC4=C[C@@H](OC(C)=O)CC[C@@H]4[C@H]3CC[C@@]21C` [ETHYNODIOL DIACETATE], the DILI positive/negative was 1.

The compound `O=c1[nH]c(=O)n([C@H]2C[C@H](O)[C@@H](CO)O2)cc1F` [FLOXURIDINE] gave a DILI positive/negative of 1.

As to `CC[N+](CC)(CC)CCOc1cccc(OCC[N+](CC)(CC)CC)c1OCC[N+](CC)(CC)CC.[I-].[I-].[I-]` [GALLAMINE TRIETHIODIDE], the DILI positive/negative is 0.

For `CCC1(c2ccccc2)CCC(=O)NC1=O` (stereo not given) [GLUTETHIMIDE], the DILI positive/negative came to 1.

Turning to `Cc1c(F)c(N2CCNC(C)C2)cc2c1c(=O)c(C(=O)O)cn2C1CC1` (stereo not given) [GREPAFLOXACIN], the DILI positive/negative (Liver) stood at 1.

The compound `CCN(CC)CCNc1ccc(CO)c2sc3ccccc3c(=O)c12` [HYCANTHONE] had a DILI positive/negative of 1.

`CC1(c2ccccc2)Cc2cc(OCC(=O)O)c(Cl)c(Cl)c2C1=O` (stereo not given) [INDACRINONE]: the DILI positive/negative is on record as 1.

`O=C(O)c1ccncc1` [ISONICOTINIC ACID] displayed a DILI positive/negative of 0.

Turning to `Cc1cc(NC(=O)C2=C(O)c3ccccc3S(=O)(=O)N2C)no1` [ISOXICAM], the DILI positive/negative is 0.

The compound `N[C@@H](Cc1ccc(O)c(O)c1)C(=O)O` [LEVODOPA] showed a DILI positive/negative of 0.

Turning to `COc1ccc2[nH]cc(CCNC(C)=O)c2c1` [MELATONIN], the DILI positive/negative is 0.

Compound `CCC1(c2ccccc2)C(=O)NC(=O)N(C)C1=O` (stereo not given) [MEPHOBARBITAL] returned a DILI positive/negative of 1.

Compound `C#C[C@]1(O)CC[C@H]2[C@@H]3CCc4cc(OC)ccc4[C@H]3CC[C@@]21C` [MESTRANOL] returned a DILI positive/negative of 1.

`C=C1c2cccc(O)c2C(=O)C2=C(O)[C@]3(O)C(=O)C(C(N)=O)=C(O)[C@@H](N(C)C)[C@@H]3[C@@H](O)[C@H]12.Cl` [METHACYCLINE HYDROCHLORIDE] came in with a DILI positive/negative of 1.

`COc1ccc(OC)c(C(O)C(C)N)c1.Cl` (stereo not given) [METHOXAMINE HYDROCHLORIDE] yielded a DILI positive/negative of 0.

`CC1(C)S[C@@H]2[C@H](NC(=O)[C@H](NC(=O)N3CCN(S(C)(=O)=O)C3=O)c3ccccc3)C(=O)N2[C@H]1C(=O)[O-].[Na+]` [MEZLOCILLIN SODIUM] gave a DILI positive/negative (Liver) of 1.

On to `CN1CCN2c3ccccc3Cc3ccccc3C2C1` (stereo not given) [MIANSERIN], for which the DILI positive/negative was 1.

Turning to `COCC(=O)O[C@]1(CCN(C)CCCc2nc3ccccc3[nH]2)CCc2cc(F)ccc2[C@@H]1C(C)C` [MIBEFRADIL], the DILI positive/negative worked out at 0.

Consider `CO[C@@]1(NC(=O)C(C(=O)[O-])c2ccc(O)cc2)C(=O)N2C(C(=O)[O-])=C(CSc3nnnn3C)CO[C@@H]21.[Na+].[Na+]` (stereo not given in full) [MOXALACTAM DISODIUM], for which the DILI positive/negative was 0.

In turn, `COC(=O)C1=C(C)NC(C)=C(C(=O)OCC(C)C)C1c1ccccc1[N+](=O)[O-]` (stereo not given) [NISOLDIPINE] registered a DILI positive/negative of 0.

In turn, `COC(=O)Nc1nc2ccc(C(=O)c3cccs3)cc2[nH]1` [NOCODAZOLE] registered a DILI positive/negative of 0.

Under “Liver”, `C#CC1(O)CC[C@H]2[C@@H]3CCC4=CC(=O)CC[C@@H]4[C@H]3CC[C@@]21CC` (stereo not given in full) [NORGESTREL] yielded a DILI positive/negative of 1.

`CCCCC(CC)COC(=O)C=Cc1ccc(OC)cc1` (stereo not given) [OCTINOXATE] displayed a DILI positive/negative of 1.

In turn, `O=S(=O)(O)O.Oc1cccc2cccnc12.Oc1cccc2cccnc12` [OXYQUINOLINE SULFATE] registered a DILI positive/negative (Liver) of 1.

In turn, `CCOc1ccc(NC(C)=O)cc1` [PHENACETIN] gave a DILI positive/negative of 1.

`Cl.Nc1ccc(/N=N/c2ccccc2)c(N)n1` [PHENAZOPYRIDINE HYDROCHLORIDE] gave a DILI positive/negative of 1.

Turning to `c1ccc2c(c1)Nc1ccccc1S2` [PHENOTHIAZINE], the DILI positive/negative is reported as 1.

For `CC(N)C(O)c1ccccc1.Cl` (stereo not given) [PHENYLPROPANOLAMINE HYDROCHLORIDE], the DILI positive/negative is recorded as 0.

The compound `CC(C)(Sc1cc(C(C)(C)C)c(O)c(C(C)(C)C)c1)Sc1cc(C(C)(C)C)c(O)c(C(C)(C)C)c1` [PROBUCOL] registered a DILI positive/negative of 0.

On to `CN[C@@H](C)[C@@H](O)c1ccccc1.Cl` [PSEUDOEPHEDRINE HYDROCHLORIDE], for which the DILI positive/negative came to 0.

`CCO[C@@H](Cc1ccc(OCCN2c3ccccc3Oc3ccccc32)cc1)C(=O)O` [RAGAGLITAZAR] had a DILI positive/negative of 0.

Consider `Nc1ccc(S(=O)(=O)NC(=O)c2ccccc2)cc1` [SULFABENZAMIDE], for which the DILI positive/negative stood at 0.

In turn, `CC1CN(c2cc3c(cc2F)c(=O)c(C(=O)O)cn3-c2ccc(F)cc2F)CCN1` (stereo not given) [TEMAFLOXACIN] showed a DILI positive/negative of 1.

`CCCCNc1ccc(C(=O)OCCN(C)C)cc1.Cl` [TETRACAINE HYDROCHLORIDE] gave a DILI positive/negative of 0.

Source of the values: ChEMBL document CHEMBL1909294, “Translating clinical findings into knowledge in drug safety evaluation--drug induced liver injury prediction system (DILIps)” (PLoS Comput Biol, 2011).
